Measured values: BindingDB's records for doi:10.1021/jm00053a023 (Monsanto, 1993)
pIC50: −log10 of the molar value.

Molecular target: endothelin converting enzyme (Oryctolagus cuniculus)
Test: Inhibition of endothelin converting enzyme in an RIA assay using big ET-1 as substrate (value corresponds to <25% inhibition when assayed at a 100 uM screening concentration)

pIC50 | Compound
3.96 | CCOP(=O)(O)N[C@@H](CC(C)C)C(=O)N[C@@H](Cc1c[nH]c2ccccc12)C(=O)O [2-[2-(Ethoxy-hydroxy-phosphorylamino)-4-methyl-pentanoylamino]-3-(1H-indol-3-yl)-propionic acid]
4.32 | CC(C)C[C@H](NP(=O)(O)OC1CCCCC1)C(=O)N[C@@H](Cc1c[nH]c2ccccc12)C(=O)O [2-[2-(Cyclohexyloxy-hydroxy-phosphorylamino)-4-methyl-pentanoylamino]-3-(1H-indol-3-yl)-propionic acid]
4.21 | CC(C)C[C@H](NP(=O)(O)Cc1ccccc1)C(=O)N[C@@H](Cc1c[nH]c2ccccc12)C(=O)O [2-[2-(Hydroxy-benzyl-phosphorylamino)-4-methyl-pentanoylamino]-3-(1H-indol-3-yl)-propionic acid]
